This note sets out measurements from article PMC4858680, “A platinum-based hybrid drug design approach to circumvent acquired resistance to molecular targeted tyrosine kinase inhibitors” (Scientific Reports, 2016).

The target in data set [1] is T1, ABCG2 (Homo sapiens, UniProt Q9UNQ0, R482G).
T1 construct: endogenous in cells; host or cells: S1M1-80
In words: 5D3 shift assay. Type of data set: cell-based. The note with it: ABCG2-overexpressing S1M1-80 cells; flow cytometry. For orientation: A flow cytometer gives signals particle by particle.

Data set [2] concerns H292. Briefly: Anticancer activity (cytotoxicity) in NSCLC cell line. As to conditions: NSCLC; EGFR wild type; read-out: Anticancer activity (IC50) H292. Type of data set: cell-based.
Data set [3] concerns HCC827. Described as above. Type of data set: cell-based. As to conditions: EGFR ΔE746-A750 (sensitizing).
Data set [4] concerns K562. Briefly: Anticancer activity (cytotoxicity) in CML cell line. The format is cell-based.
The subject of data set [5] is RPMI8226. Briefly: Anticancer activity (cytotoxicity) in Bcr-Abl negative cell line. The format is cell-based.
The test system of data set [6] is HEK293 Mock transfected. In words: Anticancer activity in mock transfected HEK293. The format is cell-based. As to conditions: Bcr-Abl negative.
For data set [7], the system named is HEK293 Bcr-Abl wild type. Briefly: Anticancer activity in HEK293 stably transfected with wild type Bcr-Abl. The format is cell-based.
Data set [8] relates to HEK293 Bcr-Abl E255K. Briefly: Anticancer activity in HEK293 stably transfected with Bcr-Abl E255K. As to conditions: for IC50: stably transfected. Type of data set: cell-based.
Data set [9] deals with K562 Ima1.0. In words: Anticancer activity in imatinib-selected resistant K562 subline. The format is cell-based. The note with it: for IC50: read-out: Anticancer activity (IC50) K562 Imatinib selected (K562 Ima1.0), Bcr-Abl amplification.
Data set [10] deals with p38. In words: Western blot analysis of p38 phosphorylation. The format is cell-based. (Immunoblotting shows a protein as a band on a membrane.)
The subject of data set [11] is phosphor-γ-H2Ax.
Data set [12] relates to ERK1/2 in K562 Ima1.0.
The nature of data set [13]: Chemical stability of the hybrid compounds. As to conditions: for chemical stability in culture medium: Dulbecco’s Modified Eagle Medium supplemented with 5 mM glutathione.
Data set [14] relates to H1975. Briefly: Anticancer activity (cytotoxicity) in NSCLC cell line. The format is cell-based. As to conditions: H1975 versus HCC827.
Data set [15] addresses P-gp (MDCKII–P-gp) (Homo sapiens, UniProt P08183). The note with it: 10 μM, mean of three experiments.
In data set [16] the target is P-gp (Homo sapiens, UniProt P08183). In words: UIC2 shift assay. Type of data set: cell-based. Further details: endogenous in cells; host or cells: SW620 Ad300. As to conditions: P-gp overexpressing SW620 Ad300 cells; flow cytometry.
The mark [17] stands for this setting: CML cell line, Bcr-Abl positive, Table 1, read-out: Anticancer activity (IC50) K562.
[18] abbreviates: Table 2, read-out: Anticancer activity (IC50) K562 Sensitive parental.

Read-outs that look alike come from different tables or passages of the source.

Chain of P-gp (MDCKII–P-gp) (P08183 whole entry): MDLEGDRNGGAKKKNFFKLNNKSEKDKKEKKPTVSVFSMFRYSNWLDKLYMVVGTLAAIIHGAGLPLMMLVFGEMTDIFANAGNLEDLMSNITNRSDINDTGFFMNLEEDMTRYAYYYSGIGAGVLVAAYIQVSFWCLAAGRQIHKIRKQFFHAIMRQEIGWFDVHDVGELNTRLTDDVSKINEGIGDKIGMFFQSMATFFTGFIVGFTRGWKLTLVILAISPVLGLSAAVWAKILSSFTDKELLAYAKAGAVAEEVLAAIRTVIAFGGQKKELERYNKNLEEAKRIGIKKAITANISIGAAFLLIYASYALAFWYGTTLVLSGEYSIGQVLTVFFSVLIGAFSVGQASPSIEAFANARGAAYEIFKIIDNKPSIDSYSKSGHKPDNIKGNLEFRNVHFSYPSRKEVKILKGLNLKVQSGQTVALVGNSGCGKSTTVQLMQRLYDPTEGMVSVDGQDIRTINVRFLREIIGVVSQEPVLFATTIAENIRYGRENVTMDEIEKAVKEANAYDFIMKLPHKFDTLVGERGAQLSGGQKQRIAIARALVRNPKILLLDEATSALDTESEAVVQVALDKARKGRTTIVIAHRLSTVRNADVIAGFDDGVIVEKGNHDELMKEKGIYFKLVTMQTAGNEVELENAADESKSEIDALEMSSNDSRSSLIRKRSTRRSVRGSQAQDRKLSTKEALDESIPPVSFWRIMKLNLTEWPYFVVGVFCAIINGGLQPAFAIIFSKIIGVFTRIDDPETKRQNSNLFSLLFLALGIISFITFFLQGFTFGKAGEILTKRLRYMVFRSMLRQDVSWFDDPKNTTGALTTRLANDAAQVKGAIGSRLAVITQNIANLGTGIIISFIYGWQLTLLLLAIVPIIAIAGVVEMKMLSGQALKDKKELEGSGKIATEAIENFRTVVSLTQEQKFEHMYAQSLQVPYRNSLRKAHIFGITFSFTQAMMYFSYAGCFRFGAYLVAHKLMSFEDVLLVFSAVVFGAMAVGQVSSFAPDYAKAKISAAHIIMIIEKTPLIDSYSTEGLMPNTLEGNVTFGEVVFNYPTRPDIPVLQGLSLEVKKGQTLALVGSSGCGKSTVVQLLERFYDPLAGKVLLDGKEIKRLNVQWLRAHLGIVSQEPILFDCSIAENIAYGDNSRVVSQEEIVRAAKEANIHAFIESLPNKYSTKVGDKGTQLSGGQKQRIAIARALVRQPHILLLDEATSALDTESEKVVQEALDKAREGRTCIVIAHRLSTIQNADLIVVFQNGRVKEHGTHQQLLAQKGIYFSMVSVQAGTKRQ
Chain of P-gp (P08183 whole entry): as above
T1 sequence (Q9UNQ0 whole entry R482G): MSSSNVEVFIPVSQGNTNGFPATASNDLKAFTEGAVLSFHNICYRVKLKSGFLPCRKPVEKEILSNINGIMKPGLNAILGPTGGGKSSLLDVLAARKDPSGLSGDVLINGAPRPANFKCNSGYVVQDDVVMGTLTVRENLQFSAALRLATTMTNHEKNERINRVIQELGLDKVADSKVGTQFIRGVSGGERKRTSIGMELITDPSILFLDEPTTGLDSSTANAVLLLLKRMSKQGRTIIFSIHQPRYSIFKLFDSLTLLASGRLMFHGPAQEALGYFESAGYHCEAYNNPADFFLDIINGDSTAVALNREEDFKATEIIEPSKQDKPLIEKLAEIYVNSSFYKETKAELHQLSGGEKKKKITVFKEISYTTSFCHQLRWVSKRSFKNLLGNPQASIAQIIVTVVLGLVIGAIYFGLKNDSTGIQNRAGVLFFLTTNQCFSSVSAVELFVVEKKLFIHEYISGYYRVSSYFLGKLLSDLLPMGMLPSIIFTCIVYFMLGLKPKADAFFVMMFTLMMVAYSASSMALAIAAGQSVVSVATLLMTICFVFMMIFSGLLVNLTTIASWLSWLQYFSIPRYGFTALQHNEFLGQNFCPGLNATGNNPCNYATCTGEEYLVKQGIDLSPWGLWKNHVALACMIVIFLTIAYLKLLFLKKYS

On to `O=c1c(O)c(-c2ccc(O)c(O)c2)oc2cc(O)cc(O)c12` [quercetin], for which the “5D3 shift (interaction with ABCG2)” value in data set [1] is “concentration dependent antibody shift”.
Take `COc1cc2c(Nc3ccc(Br)cc3F)[n+]([Pt@SP3-2]([NH2])([NH3+])[Cl])cnc2cc1OCC1CCN(C)CC1` [3c, transplatin-vandetanib]: the IC50 in [2] stood at 18.4 ± 4.48 µM.
For `N.N.[Cl][Pt][Cl]` [Cisplatin], the IC50 in [2] came out at 2.12 ± 0.87 µM; in data set [3], 6.65 ± 1.66 µM; in [4] (setting [17]), 19.8 ± 1.42 µM; in [4] (setting [18]), 19.8 ± 1.42 µM; in data set [5], 2.97 ± 0.82 µM; in data set [6], 5.43 ± 0.72 µM. Also, the IC50 turned out to be 8.16 ± 1.01 µM in data set [7], 6.54 ± 0.49 µM in data set [8] and 17.5 ± 1.06 µM in data set [9]. Moreover, the “p38 phosphorylation (Western blot)” value in data set [10] is recorded as “induce p38 phosphorylation”.
Consider `Cc1ccc(NC(=O)c2ccc(CN3CCN(C)CC3)cc2)cc1Nc1nccc(-c2cccnc2)[n+]1[Pt@SP3-2]([NH3+])([NH3+])[Cl]` [1c, transplatin-imatinib], for which the IC50 was found to be 1.04 ± 0.01 µM in [4] (setting [17]), 1.04 ± 0.01 µM in [4] (setting [18]), 10.1 ± 1.39 µM in [6] and 1.05 ± 0.14 µM in data set [9]. Besides, in [11], the “DNA damage marker (phosphor-γ-H2Ax) (Western blot)” value was “concentration dependent upregulation”. For the same compound, in data set [12], the “activation of downstream ERK1/2 (Western blot)” value is given as “able to inhibit the activation”. For the same compound, the “chemical stability in culture medium” value in data set [13] is given as “undergo gradual degradation to release the original TKI”.
As for `O=C1[O][Pt]2([NH][C@@H]3CCCC[C@H]3[NH]2)[O]C1=O` [Oxaliplatin], the IC50 was 3.77 ± 0.35 µM in data set [2]; 3.6 ± 1.76 µM in data set [3]; 16.6 ± 2.08 µM in [4] (setting [17]); 16.6 ± 2.08 µM in data set [4] (setting [18]); 0.43 ± 0.04 µM in data set [5]; 2.41 ± 0.32 µM in data set [6]. The IC50 in data set [7] was determined as 3.15 ± 0.87 µM; in data set [8] it was 2.65 ± 0.71 µM; in data set [9], 16.4 ± 1.14 µM. Further, the “Fold resistance (IC50 in H1975/IC50 in HCC827)” value in [14] was determined as 1.4. Besides, the “Fold resistance HEK293 Bcr-Abl E255K” value in data set [8] (versus HEK293 Bcr-Abl wild type) stood at 0.8. The “Fold resistance K562 Ima1.0” value in data set [9] (versus sensitive parental K562) stood at 1.0.
Consider `C#Cc1cccc(Nc2c3cc(OCCOC)c(OCCOC)cc3nc[n+]2[Pt@SP3-2]([NH3+])([NH3+])[Cl])c1` [2c, transplatin-erlotinib], for which, in data set [15], the “A to B transport (apparent permeability)” value is 3.57 × 10^−6 and the “B to A transport (apparent permeability)” value is listed as 3.40 × 10^−6. In addition, in [13], the “chemical stability in culture medium” value is on record as “undergo gradual degradation to release the original TKI”.
For `COc1cc2c(Nc3ccc(Br)cc3F)[n+]([Pt@SP2-2]([NH2])([NH3+])[Cl])cnc2cc1OCC1CCN(C)CC1` [3a, cisplatin-vandetanib], in data set [2], the IC50 stood at 26.4 ± 3.19 µM.
`C=C[C@H]1C[N@@]2CC[C@H]1C[C@H]2[C@H](O)c1ccnc2ccc(OC)cc12` [quinine]: the “UIC2 shift (interaction with P-gp)” value in data set [16] is given as “concentration dependent antibody shift”.
Consider `C#Cc1cccc(Nc2c3cc(OCCOC)c(OCCOC)cc3nc[n+]2[Pt-2]2([Cl])[NH2+]C3CCCCC3[NH2+]2)c1` (stereo not drawn) [2b, oxaliplatin-erlotinib], for which the IC50 in [2] came to 1.33 ± 0.39 µM. Further, in data set [15], the “A to B transport (apparent permeability)” value is 6.59 × 10^−6. Also, the “chemical stability in all conditions tested” value in data set [13] (saline, phosphate buffered solution (pH 4 and 7.4), culture medium with 5 mM glutathione) is recorded as “stable”.

As usually defined, the IC50 is the concentration at which inhibition is half-maximal.
